The values that follow come from ChEMBL document CHEMBL1127931, “Design and synthesis of a prototypical non-peptidic inhibitor model for the enzme renin” (Bioorg Med Chem Lett, 1994).

Usually IC50 stands for the midpoint of a concentration-inhibition curve. Low readings indicate higher potency, high ones lower potency.

For the test, the target named is T1, Renin (Homo sapiens, UniProt P00797).
T1 sequence (P00797 whole entry): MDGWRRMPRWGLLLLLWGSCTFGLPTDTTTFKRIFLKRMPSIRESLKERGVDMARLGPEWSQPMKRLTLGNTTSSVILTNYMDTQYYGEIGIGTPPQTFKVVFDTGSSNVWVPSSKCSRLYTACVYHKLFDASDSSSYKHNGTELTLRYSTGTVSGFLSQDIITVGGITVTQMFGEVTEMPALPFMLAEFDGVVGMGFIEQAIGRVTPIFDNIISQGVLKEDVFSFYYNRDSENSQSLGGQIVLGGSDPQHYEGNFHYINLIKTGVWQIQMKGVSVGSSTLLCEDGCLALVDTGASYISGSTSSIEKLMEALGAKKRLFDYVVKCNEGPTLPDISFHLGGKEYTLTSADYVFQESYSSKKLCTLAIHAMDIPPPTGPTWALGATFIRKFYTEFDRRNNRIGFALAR
Kind of test: Binding affinity towards human renin was determined.
Turning to `CCCCNC(=O)[C@H](C)C[C@H](O)[C@@H]1C[C@@H](C)[C@@H](c2ccccc2)N1C(=O)OCc1ccccc1`, the IC50 was greater than 100 µM.

`CCCCNC(=O)[C@H](C)C[C@H](O)[C@H](C[C@@H](C)Cc1ccccc1)NC(=O)OC(C)(C)C` gave an IC50 greater than 100 µM. The value for `CCCCNC(=O)[C@H](C)C[C@H](O)C1C[C@@H](C)[C@@H](c2ccccc2)N1C(=O)OC(C)(C)C` (some centres undefined) was greater than 100 µM; that for `CCCCNC(=O)[C@H](C)C[C@H](O)[C@@H](N)C[C@@H](C)Cc1ccccc1` was 37 µM.
